Measurements published in patent US20210145801A1, “THERAPY FOR PROTEIN MISFOLDING DISEASE” (WREN THERAPEUTICS LIMITED, priority 2018, published 2021).

These compounds were tested against T1, Aβ42 (Homo sapiens, UniProt P05067) (assay: ThT kinetic assay of Aβ42 aggregation (unseeded)). Settings: 2 μM Aβ42; 5× drug:protein concentration.
T1 construct: made in house; host or cells: E. coli BL21 Gold (DE3)
Assay type: biochemical
Source text: The recombinant Aβ(M1-42) peptide ([…]-SNKGAIIGLMVGGVVIA [SEQ ID NO: 1]), here called Aβ42, was expressed in the E. coli BL21 Gold (DE3) strain (Stratagene, Calif., U.S.A.) and purified as described previously with slight modifications. Briefly, the purification procedure involved sonication of E. coli cells, dissolution of inclusion bodies in 8 M urea, and ion exchange in batch mode on diethylaminoethyl cellulose resin and lyophylization. The lyophilized fractions were further purified using Superdex 75 HR 26/60 column (GE Healthcare, Buckinghamshire, U.K.) and eluates were analyzed using SDS-PAGE for the presence of the desired protein product. The fractions containing the recombinant protein were combined, frozen using liquid nitrogen, and lyophilized again.
Except for Netoglitazone, which was custom synthesised by GVK BIO, all small molecules were purchased with a purity greater than 99%. Small molecules were first solubilized in 100% DMSO to a concentration of 5 mM, and then diluted in the peptide solution to reach a final DMSO concentration of maximum 1-3%. We verified that the addition of DMSO in the reaction mixture has no effect on Aβ42 aggregation.
Solutions of monomeric peptides were prepared by dissolving the lyophilized Aβ42 peptide in 6 M GuHCl. Monomeric forms were purified from potential oligomeric species and salt using a Superdex 75 10/300 GL column (GE Healthcare) at a flowrate of 0.5 mL/min, and were eluted in 20 mM sodium phosphate buffer, pH 8 supplemented with 200 μM EDTA and 0.02% NaN3. The centre of the peak was collected, and the peptide concentration was determined from the absorbance of the integrated peak area using ε280=1490 L mol^−1 cm^−1. The obtained monomer was diluted with buffer to the desired concentration and supplemented with 20 μM Thioflavin T (ThT) from a 1 mM stock. All samples were prepared in low binding Eppendorf tubes on ice using careful pipetting to avoid introduction of air bubbles. Each sample was then pipetted into multiple wells of a 96-well half-area, low-binding, clear bottom and PEG coating plate (Corning 3881), 80 μL per well. Aβ42 kinetics have been performed in the absence or the presence of Netoglitazone, Mitoglitazone, Rosiglotazone, Rivoglitazone, Pioglitazone, Ciglitazone, Englitazone, Darglitazone, Troglitazone and Balaglitazone.
The time evolution of the total fibril mass concentration is described as a function only of the initial conditions and the rate constants of the system by the integrated rate law given by Eq. (54) in Cohen et al., J Chem Phys 135, 065106, 2011.
These are related to the rate of formation of new aggregates through primary pathways λ=√{square root over (2k+knm(0)^n^c)} and through secondary pathways κ=√{square root over (2k+k2m(0)^n^2^+1)}, where the initial concentration of soluble monomers is denoted by m(0), nc and n2 describe the dependencies of the primary and secondary pathways on the monomer concentration (nc=n2=2 for Aβ42), and kn, k+ and k2 are the rate constants of the primary nucleation, elongation and secondary nucleation, respectively (Cohen et al., Proc Natl Acad Sci USA, 110(24), 9758-63, 2013).
Inhibitors can interfere with the aggregation process by inhibiting one or more of the individual microscopic steps.

T1 sequence (P05067 671-713): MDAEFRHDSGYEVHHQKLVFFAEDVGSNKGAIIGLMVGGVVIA

Structure (SMILES)	Delay of Aβ42 aggregation
CCc1ccc(C(=O)COc2ccc(CC3SC(=O)NC3=O)cc2)nc1 (centres unmarked) [Mitoglitazone]	little to no delay of Aβ42 aggregation was observed
Cn1c(COc2ccc(CC3SC(=O)NC3=O)cc2)nc2ccccc2c1=O (centres unmarked) [Balaglitazone]	little to no delay of Aβ42 aggregation was observed
COc1ccc2nc(COc3ccc(CC4SC(=O)NC4=O)cc3)n(C)c2c1 (centres unmarked) [Rivoglitazone]	little to no delay of Aβ42 aggregation was observed
Cc1oc(-c2ccccc2)nc1CCC(=O)c1ccc(CC2SC(=O)NC2=O)cc1 (centres unmarked) [Darglitazone]	observed to delay Aβ42 aggregation
O=C1NC(=O)C(Cc2ccc3c(c2)CC[C@H](Cc2ccccc2)O3)S1 (some centres unmarked) [Englitazone]	significantly delayed aggregation
